pIC50: −log10 of the molar value.
Experiments:
[1] = Cmax in female Wistar Han rat at 10 mg/kg,po by LC-MS/MS analysis; assay type: ADME, organism-based; set-up: dose 10 mg/kg, route po; conditions: in vivo
[2] = AUC (0-infinity) in mouse plasma at 1 mg/kg,iv; assay type: ADME, organism-based; set-up: dose 1 mg/kg, route iv; conditions: in vivo
[3] = Oral bioavailability in mouse plasma at 3 mg/kg; assay type: ADME, organism-based; conditions: in vivo
[4] = Clearance in human hepatocyte at 2 uM measured upto 120 mins by LC-MS/MS analysis; assay type: ADME, cell-based; conditions: hepatocytes
[5] = AUClast in cynomolgus monkey at 2 mg/kg,iv by LC-MS/MS analysis; assay type: ADME, organism-based, Macaca fascicularis; set-up: dose 2 mg/kg, route iv; conditions: in vivo
[6] = Cmax in male cynomolgus monkey at 10 mg/kg,po by LC-MS/MS analysis; assay type: ADME, organism-based, Macaca fascicularis; set-up: dose 10 mg/kg, route po; conditions: in vivo
[7] = Tmax in male Wistar Han rat at 10 mg/kg,po by LC-MS/MS analysis; assay type: ADME, organism-based; conditions: in vivo
[8] = Half life in female minipig at 10 mg/kg,po by LC-MS/MS analysis; assay type: ADME, organism-based, Sus scrofa domesticus; conditions: pig, in vivo
[9] = AUClast in male cynomolgus monkey at 10 mg/kg,po by LC-MS/MS analysis; assay type: ADME, organism-based, Macaca fascicularis; set-up: dose 10 mg/kg, route po; conditions: in vivo
[10] = AUClast in female cynomolgus monkey at 10 mg/kg,po by LC-MS/MS analysis; assay type: ADME, organism-based, Macaca fascicularis; set-up: dose 10 mg/kg, route po; conditions: in vivo
[11] = Oral bioavailability in female minipig at 30 mg/kg by LC-MS/MS analysis; assay type: ADME, organism-based, Sus scrofa domesticus; conditions: pig, in vivo
[12] = molecular target: T1, Cytochrome P450 1A2 (Homo sapiens, UniProt P05177); test: Inhibition of CYP1A2 (unknown origin); assay type: ADME
T1 sequence (P05177 whole entry): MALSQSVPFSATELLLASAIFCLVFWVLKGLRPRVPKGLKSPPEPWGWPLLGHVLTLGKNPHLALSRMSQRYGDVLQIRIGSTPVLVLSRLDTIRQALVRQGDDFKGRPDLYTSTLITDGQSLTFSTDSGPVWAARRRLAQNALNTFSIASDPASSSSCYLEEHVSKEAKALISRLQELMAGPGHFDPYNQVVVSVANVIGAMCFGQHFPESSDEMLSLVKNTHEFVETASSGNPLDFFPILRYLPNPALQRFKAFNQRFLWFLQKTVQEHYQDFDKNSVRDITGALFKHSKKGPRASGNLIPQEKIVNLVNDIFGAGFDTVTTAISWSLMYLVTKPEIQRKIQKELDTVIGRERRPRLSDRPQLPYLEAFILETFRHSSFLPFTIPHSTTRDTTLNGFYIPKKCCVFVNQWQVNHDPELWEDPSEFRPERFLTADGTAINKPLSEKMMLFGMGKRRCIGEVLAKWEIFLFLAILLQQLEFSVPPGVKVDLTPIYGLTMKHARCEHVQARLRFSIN

[13] = Toxicity in rat assessed as NOAEL administrated upto 28 days; conditions: in vivo, time < 28 day

Cmax [1]: 683 ng/mL
AUC [2]: 837 µg·h/L
F [3]: 33%
CLhep predicted at 2 µM [4]: 5.6 mL/min/kg
AUC(0-t) [5]: 1490 ng·h/mL
Cmax [6]: 298 ng/mL
Tmax [7]: 1.5 h
half-life [8]: 582 min
AUC(0-t) [9]: 1430 ng·h/mL
AUC(0-t) [10]: 1060 ng·h/mL
bioavailability [11]: 12.4%
pIC50 [12]: < 4.30
Structure (SMILES): CCOC(=O)C1=C(CN2CCN3C(=O)N(CC(C)(C)C(=O)O)C[C@@H]3C2)NC(c2nccs2)=N[C@H]1c1cccc(F)c1C [LINVENCORVIR]
NOAEL at 672 h [13]: 250 mg/kg
